Laboratory results published in PMC3914206.

How the values were obtained:
Type in all cases: binding
Details in all cases: Compound Concentration 10 µM
panel of 442 kinases [1] = target: T1, panel of 442 kinases (Homo sapiens, UniProt P07948)
T1 construct: purchased KINOMEscan
From the text: (§1) We assessed the selectivity of members of this scaffold using the KINOMEscan methodology across a near comprehensive panel of 442 kinases [[18,27]].

panel of 442 kinases [2] = target: T2, panel of 442 kinases (Homo sapiens, UniProt P10721, D816V)
T2 construct: purchased KINOMEscan
From the text: as §1

panel of 442 kinases [3] = target: T3, panel of 442 kinases (Homo sapiens, UniProt P24723)
T3 construct: purchased KINOMEscan
From the text: as §1

panel of 442 kinases [4] = target: T4, panel of 442 kinases (Homo sapiens, UniProt Q15303)
T4 construct: purchased KINOMEscan
From the text: as §1

T3 sequence (P24723 whole entry): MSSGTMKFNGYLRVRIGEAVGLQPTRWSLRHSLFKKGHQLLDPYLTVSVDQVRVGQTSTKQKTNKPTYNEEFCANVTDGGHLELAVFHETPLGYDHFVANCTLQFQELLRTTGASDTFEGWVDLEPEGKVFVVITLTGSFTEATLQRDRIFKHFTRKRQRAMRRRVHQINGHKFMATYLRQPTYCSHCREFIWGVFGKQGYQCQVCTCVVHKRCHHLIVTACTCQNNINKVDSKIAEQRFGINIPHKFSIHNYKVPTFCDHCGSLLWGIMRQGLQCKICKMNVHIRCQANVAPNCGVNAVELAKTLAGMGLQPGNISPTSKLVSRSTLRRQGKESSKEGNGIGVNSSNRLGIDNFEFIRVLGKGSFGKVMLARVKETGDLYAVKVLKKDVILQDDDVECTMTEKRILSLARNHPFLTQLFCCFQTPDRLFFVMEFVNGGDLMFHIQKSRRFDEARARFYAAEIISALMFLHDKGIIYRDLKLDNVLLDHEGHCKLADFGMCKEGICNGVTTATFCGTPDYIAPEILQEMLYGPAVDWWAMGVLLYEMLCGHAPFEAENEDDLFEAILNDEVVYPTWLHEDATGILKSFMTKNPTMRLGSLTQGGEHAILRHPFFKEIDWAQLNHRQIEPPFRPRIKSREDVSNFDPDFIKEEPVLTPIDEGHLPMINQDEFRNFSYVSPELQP
T1 sequence (P07948 whole entry): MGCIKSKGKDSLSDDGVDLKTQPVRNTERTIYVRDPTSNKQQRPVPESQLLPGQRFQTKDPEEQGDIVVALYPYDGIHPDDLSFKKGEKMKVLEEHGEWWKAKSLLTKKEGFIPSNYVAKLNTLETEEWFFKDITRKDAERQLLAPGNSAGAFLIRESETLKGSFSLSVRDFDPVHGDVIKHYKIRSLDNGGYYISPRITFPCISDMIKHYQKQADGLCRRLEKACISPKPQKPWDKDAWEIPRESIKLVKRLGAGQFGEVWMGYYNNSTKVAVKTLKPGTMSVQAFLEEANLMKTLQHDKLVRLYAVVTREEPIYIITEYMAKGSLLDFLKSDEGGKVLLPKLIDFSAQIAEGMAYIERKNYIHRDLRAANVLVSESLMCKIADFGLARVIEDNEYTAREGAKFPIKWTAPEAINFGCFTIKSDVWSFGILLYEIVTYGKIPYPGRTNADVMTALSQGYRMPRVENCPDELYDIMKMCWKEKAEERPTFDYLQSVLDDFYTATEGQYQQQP
T2 sequence (P10721 26-976 D816V): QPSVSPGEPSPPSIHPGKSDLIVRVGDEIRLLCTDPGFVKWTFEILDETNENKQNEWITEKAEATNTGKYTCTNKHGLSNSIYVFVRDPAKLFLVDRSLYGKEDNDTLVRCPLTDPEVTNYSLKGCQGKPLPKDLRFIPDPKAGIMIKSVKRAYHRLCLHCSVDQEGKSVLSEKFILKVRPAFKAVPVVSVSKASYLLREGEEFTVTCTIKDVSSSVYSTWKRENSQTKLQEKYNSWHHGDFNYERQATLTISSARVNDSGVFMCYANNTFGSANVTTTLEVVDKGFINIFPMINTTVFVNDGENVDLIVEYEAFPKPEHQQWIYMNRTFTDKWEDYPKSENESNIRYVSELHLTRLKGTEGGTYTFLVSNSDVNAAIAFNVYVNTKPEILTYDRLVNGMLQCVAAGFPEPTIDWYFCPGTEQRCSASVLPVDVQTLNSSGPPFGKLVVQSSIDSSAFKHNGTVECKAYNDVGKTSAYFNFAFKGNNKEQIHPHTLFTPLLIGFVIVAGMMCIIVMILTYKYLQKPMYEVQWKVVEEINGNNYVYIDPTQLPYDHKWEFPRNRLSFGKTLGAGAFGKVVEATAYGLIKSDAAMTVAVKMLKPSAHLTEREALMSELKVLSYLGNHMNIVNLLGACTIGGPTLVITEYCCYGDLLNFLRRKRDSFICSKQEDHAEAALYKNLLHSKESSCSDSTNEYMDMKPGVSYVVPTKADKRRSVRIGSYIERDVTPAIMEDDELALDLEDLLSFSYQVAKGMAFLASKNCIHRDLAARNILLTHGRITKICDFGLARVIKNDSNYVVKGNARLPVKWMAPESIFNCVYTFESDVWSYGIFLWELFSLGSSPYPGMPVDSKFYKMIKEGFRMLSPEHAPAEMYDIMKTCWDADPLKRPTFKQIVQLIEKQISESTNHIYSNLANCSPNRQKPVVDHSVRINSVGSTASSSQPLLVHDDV
T4 sequence (Q15303 26-1308): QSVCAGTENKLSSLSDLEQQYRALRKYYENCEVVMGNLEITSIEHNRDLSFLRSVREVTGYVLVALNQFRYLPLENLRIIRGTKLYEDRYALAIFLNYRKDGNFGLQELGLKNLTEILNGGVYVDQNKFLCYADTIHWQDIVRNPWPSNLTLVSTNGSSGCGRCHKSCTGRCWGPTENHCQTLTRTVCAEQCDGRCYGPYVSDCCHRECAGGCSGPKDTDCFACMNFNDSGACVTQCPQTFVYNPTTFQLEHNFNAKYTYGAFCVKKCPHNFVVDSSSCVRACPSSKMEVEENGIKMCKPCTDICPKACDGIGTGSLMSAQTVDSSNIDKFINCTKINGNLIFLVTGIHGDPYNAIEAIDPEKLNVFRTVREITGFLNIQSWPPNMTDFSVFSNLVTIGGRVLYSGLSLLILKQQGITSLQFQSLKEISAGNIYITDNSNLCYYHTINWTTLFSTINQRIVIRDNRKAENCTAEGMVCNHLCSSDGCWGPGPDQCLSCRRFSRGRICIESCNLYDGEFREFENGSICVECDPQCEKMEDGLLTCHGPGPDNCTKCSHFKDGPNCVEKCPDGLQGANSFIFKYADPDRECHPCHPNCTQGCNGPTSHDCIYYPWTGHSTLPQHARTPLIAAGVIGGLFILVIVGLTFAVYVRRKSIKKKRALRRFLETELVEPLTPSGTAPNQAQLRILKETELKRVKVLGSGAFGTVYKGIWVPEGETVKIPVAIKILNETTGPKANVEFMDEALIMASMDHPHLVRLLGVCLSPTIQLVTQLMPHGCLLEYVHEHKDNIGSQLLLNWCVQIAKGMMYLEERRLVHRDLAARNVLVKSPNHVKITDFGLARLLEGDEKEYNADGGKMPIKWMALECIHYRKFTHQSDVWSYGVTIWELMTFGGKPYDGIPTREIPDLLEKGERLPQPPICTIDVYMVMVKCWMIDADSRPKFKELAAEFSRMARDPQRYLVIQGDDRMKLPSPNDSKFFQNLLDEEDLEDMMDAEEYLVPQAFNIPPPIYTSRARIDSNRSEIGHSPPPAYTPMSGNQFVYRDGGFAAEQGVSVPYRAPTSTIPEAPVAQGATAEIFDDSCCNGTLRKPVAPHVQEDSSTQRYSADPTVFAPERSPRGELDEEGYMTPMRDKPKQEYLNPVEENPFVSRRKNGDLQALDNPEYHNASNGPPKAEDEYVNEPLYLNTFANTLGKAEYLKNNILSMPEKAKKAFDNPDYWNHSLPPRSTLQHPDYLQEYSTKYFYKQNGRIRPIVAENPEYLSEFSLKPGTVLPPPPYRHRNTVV

| SMILES | KINOMEscan: LYN (panel of 442 kinases [1]) | KINOMEscan: KIT(D816V) (panel of 442 kinases [2]) | KINOMEscan: PRKCH (panel of 442 kinases [3]) | KINOMEscan: ERBB4 (panel of 442 kinases [4]) |
| --- | --- | --- | --- | --- |
| COc1cc(C(=O)N2CCC(N3CCN(C)CC3)CC2)ccc1Nc1ncc2c(n1)N(C)c1ccccc1C(=O)N2C [15 (LRRK2-IN-1)] | 100 | 72 | 100 | 100 |
| COc1cc(C(=O)N2CCC(N3CCN(C)CC3)CC2)ccc1Nc1ncc2c(n1)N1CCc3cccc(c31)C(=O)N2C [Compound 24] | 83 |  | 84 |  |
| COc1cc(C(=O)N2CCC(N3CCN(C)CC3)CC2)ccc1Nc1ncc2c(n1)N(C1CCCC1)c1ccccc1C(=O)N2C [Compound 25, 11-cyclopentyl-2-((2-methoxy-4-(4-(4-methylpiperazin-1-yl)piperidine-1-carbonyl)phenyl)amino)-5-methyl-5H-benzo[e]pyrimido[5,4-b][1,4]diazepin-6(11H)-one] | 85 | 92 | 100 | 100 |
| CCOc1cc(C(=O)N2CCC(N3CCN(C)CC3)CC2)ccc1Nc1ncc2c(n1)N(C1CCCC1)c1ccccc1C(=O)N2C [Compound 26] | 100 | 96 | 100 | 100 |
